Results published in article PMC10541198, “Specific quinone reductase 2 inhibitors reduce metabolic burden and reverse Alzheimer’s disease phenotype in mice” (The Journal of Clinical Investigation, 2023).
“And” between values parts separate entries of the source, which are not always exact repeats. Equal entries are not always repeated.

System: 5xFAD mice
Assay: Morris water maze in 5xFAD mice
Type: in vivo, mouse
Details: for MWM escape latency (individual mice): 5xFAD 1 month
Protocol: We next aimed to test the effect of QR2 inhibition in AD model mice using YB-537, taking advantage of its extremely high specificity, solubility, and lack of toxicity. First, we determined YB-537 pharmacokinetics (PK) and oral bioavailability and assessed any acute observable toxicity in mice. […] We therefore opted to chronically deliver YB-537 to AD-model mice via their drinking water, so they may freely ingest the inhibitor at 50 mg/kg, with minimal intervention or trauma, for 1 month. We chose 9-month-old 5xFAD ([27]) male and female mice in double-blind experiments, so that well-progressed symptoms and pathologies would be present, to mimic clinically relevant cases in human patients ([35]), as has been previously described in this mouse model. Other than an improvement in nest quality ([36]) over time seen in animals receiving YB-537 (starting at age 8 months and ending at age 9 months), no changes to general physical parameters or wellbeing were observed over the 1 month of YB-537 ingestion (Supplemental Figure 6, A–J). Animals received the treatment for a week, and, on week 2, behavioral experiments commenced, including Morris water maze (MWM) and novel object recognition (NOR). These were carried out in parallel, with half of the animals (including both sexes and treatments) undergoing 1 of the paradigms in week 2, and the other in week 3. […] Since learning in this paradigm was slow, and performance was poor even following 6 days of training (using 4 learning trials a day), a test day was not carried out and instead only the learning rate was measured. […] Finally, during week 4, all the mice underwent DFC.
MWM was carried out as previously described ([57]). Mice were trained 4 times a day, using 60 second trials every 30 minutes during which they were placed into the pool, each time from a different quadrant, and allowed to swim to find the escape platform. All trials were filmed with a video tracking system using EthoVision 14 (Noldus Information Technology), and escape latency, or time to find the submerged escape platform, was determined by video analysis. […]
Morri s wat er maze ( MWM) was carried out as previously described(58). At the sam e time each consecutive day, mice were placed in the dimly lit room containing the maze for 10 min, within cages containing dry bedding (not the home cages). The maze was obscured by a non-light- permeable curtain. The maze consisted of a 1.2 m pool, with RT (21- 23 °C) water colored light grey, to hide the submerged (under 1- 2 cm) transparent, 10 cm in diam et er plastic escape platform, which was placed at t he south- western quadrant of the pool. Mi ce wer e trained 4 times a day, using 60 s trials ever y 30 min during which t he y were pl a c ed into t he pool, each time fr om a di fferent quadrant, and allowed to swim and find t he escape platform. Upon reaching t he platform, m ice were removed fr om t he pool. If the mice f ai led to find the […] within 60 s, […]
they were carefully placed on the escape platform and held there for 15 s prior to being taken out of the pool. All trials were filmed with a video tracking system using EthoVision 14 (Noldus Information Technology), andescape latency (time to find the submer ged escape platform) was determined by manual video analysis (due to automated det ect ion settings unable to discern all mice coat c ol or s – bl a c k, white a nd brown - against the opaque water).
Mice were individually placed within a cage and taken to a dimly lit room containing an open field arena 50 x 50 cm in size. They were gi ve n 10 min prior to be i ng placed within the arena, where f or a period of 5 min they were allowed to explore. Two weeks later, this was repeated. The mice were filmed with an Ikegami ICD-49E camera with EthoVision 14 (Noldus Information Technology). Th e fl oor was ei ther whit e or black,dependingon mous e coat c ol or, to allow automatic analysisof movement par am et ers, apar t from rearing which was manually counted. […]

**Q.** How did the “MWM escape latency (individual mice)” value (both sexes, Day 1) turn out when Cc1ccc(-c2cn3cccc(C)c3n2)cc1S(=O)(=O)N1CCNCC1 [YB-537] was run?
**A.** 60.0 (8×) and 29.4 and 26.8 and 55.1 and 57.2 and 53.5 (2×) and 41.6 and 50.9

**Q.** What about the “MWM escape latency (individual mice)” value (both sexes, Day 2) of the same compound?
**A.** 60.0 (6×) and 28.0 and 23.5 and 59.7 and 50.7 and 45.3 and 33.5 and 15.1 and 54.5 and 36.1 and 58.0

**Q.** What about the “MWM escape latency (individual mice)” value (both sexes, Day 3) of the same compound?
**A.** 48.7 and 59.3 and 42.1 and 33.7 and 34.3 and 45.6 and 37.0 and 60.0 (2×) and 49.6 and 35.1 and 26.9 and 13.8 and 47.4 and 47.7 and 54.0

**Q.** What about the “MWM escape latency (individual mice)” value (both sexes, Day 4, in s (unit assumed)) of the same compound?
**A.** 44.6 and 57.9 and 24.5 and 37.5 and 31.1 and 37.6 and 51.0 and 60.0 and 52.1 and 34.3 and 5.9 and 14.1 and 13.3 and 23.0 and 48.5 and 53.9

**Q.** What about the “MWM escape latency (individual mice)” value (both sexes, Day 5, in s (unit assumed)) of the same compound?
**A.** 19.0 and 40.4 and 25.1 and 16.2 and 18.6 and 45.8 and 60.0 and 50.4 and 37.0 and 38.2 and 5.7 and 19.6 and 7.3 and 21.1 and 16.8 and 48.8

**Q.** What about the “MWM escape latency (individual mice)” value (both sexes, Day 6) of the same compound?
**A.** 39.3 and 17.9 and 20.3 and 12.9 and 14.8 and 34.0 and 50.7 and 60.0 and 14.1 and 16.8 and 5.6 and 7.2 (2×) and 16.3 and 19.0 and 27.9

**Q.** And the “MWM escape latency (individual mice)” value (males, Day 5, in s (unit assumed))?
**A.** 16.2 and 18.6 and 45.8 and 60.0

**Q.** What about the “spatial learning in MWM (escape latency over 6 days)” value (5xFAD, 50 mg/kg in drinking water, 1 month, both sexes) of the same compound?
**A.** trend toward faster spatial learning
